{"source": "patent US4743617A", "about": "“Heterocyclyl-2-propyn-1-amines” (Merrell Dow Pharmaceuticals Inc., priority 1987, dated 1988)", "key": {"[1]": {"tested_on": "dopamine-beta-hydroxylase (DBH)", "test": "time-dependent DBH inhibitory activity in vitro (oxygen uptake, tyramine substrate)", "format": "biochemical", "conditions": "Concentration 5 × 10^-5 M, preferably pH 5.0, 37° C.", "description": "The DBH inhibitory properties of the compounds of this invention can readily be determined by standard and well-known procedures. […] The test compound is added at the desired concentration, and the system is incubated. At different time internals, aliquots are taken and DBH activity is measured using tyramine as the substrate. The reaction is followed by measuring oxygen uptake using a polarographic electrode and an oxygen monitor by the method of S. May et al., J. Bio. Chem. 256, 2258 (1981)."}, "[2]": {"tested_on": "spontaneously hypertensive rats", "test": "lowering of mean blood pressure in conscious spontaneously hypertensive rats (Table II, DBH inhibitory activity in vivo)", "conditions": "30 mg/kg (ip), unanesthetized spontaneously hypertensive rats", "description": "The ability of the compounds of this invention to lower blood pressure can be determined in vivo using standard and well-known procedures such as those employed for the continuous recording of arterial blood pressure in conscious animals. For instance, test compounds are administered intraperitoneally (ip) to unanesthetized spontaneously hypertensive rats and the arterial blood pressure is monitored continuously. In tests utilizing the above procedure, the antihypertensive effect of the test compound is readily apparent as indicated by the degree of lowering of mean blood pressure (MBP) noted in Table II."}}, "data": [{"compound": "NCC#Cc1cccs1", "note": "[3-(2-thienyl)-2-propyn-1-amine]", "values": [{"measurement": "t 1/2: time required for 50% log activity remaining", "setting": "[1]", "value": 9.2, "unit": "min."}, {"measurement": "Duration", "setting": "[2]", "value": 14, "unit": "h"}, {"measurement": "Max Change MBP +/St. dev.", "setting": "[2]", "value": "-20+/-8 mm Hg"}]}]}
